According to patent US20220367023A1, “Method for Predicting a Suitable Therapy” (National University of Singapore, priority 2019, published 2022):
Like-named read-outs stand apart in the source and are kept apart here.

Test system: primary HSTCL cells from a patient
Assay: Ex vivo QPOP drug combination sensitivity, CellTiter-Glo cell viability (11 drugs at 3 doses, OACD)
Assay type: cell-based, human
[1] = output cell viability, 11 drugs at 3 doses
[2] = Homo sapiens, concentration used in the ex vivo QPOP experiment, read-out: IC15
[3] = Homo sapiens, concentration used in the ex vivo QPOP experiment, read-out: IC30
[4] = concentration used in the ex vivo QPOP experiment

Method: Tumor cells from an oncology patient sample are treated with a series of test drug combinations defined by Resolution IV Orthogonal Array Composite Design. This array of tests is used to derive coefficients for single drug and drug-drug interactions for all the drugs within the drug search set. These coefficients are used to calculate a predicted output of potential drug combinations (up to 4 drugs) from the drug search set. Patient-specific drug combinations are prioritized based on predicted output of single drug, 2-drug, 3-drug or 4-drug combinations.
In the current embodiment, primary patient sample that contains tumor cells, either from a blood sample or solid tumor biopsy, is collected. Tumor cells are isolated and seeded 2000 cells/well in Nunc™ 384-Well Clear Polystyrene Plates. In the examples used here, cell viability was performed using the CellTiter-Glo® Luminescent Cell Viability Assay following the manufacturer's instructions (Promega, Madison, Wis., USA).
Datasets for analysis by QPOP are built by ex vivo treatment of primary patient tumor cells with a series of drug combinations determined by orthogonal array composite design (OACD) to use the least number of combinations sufficient for factor screening and in-depth analyses, in concentrations that are at or below clinically approved doses (max Pk conc.), Table 1. […] In these examples here, the viability of cells exposed to the various drug combinations are the phenotypic output which is analyzed by the QPOP assay. The correlation of treatment combination (input) and viability (output) was fitted into a second-order quadratic equation. The coefficients of the second-order equation represent the correlation between the input, drug dose of the drug combination, and the output cell viability, allowing for optimizing drug combination. In the analysis, each drug combination was represented as a vector and coded dosages were used in MATLAB. The second-order quadratic equation is as follows:
where y represents the desired output, xn is the nth drug dosage, β0 is the intercept term, βn is the single-drug coefficient of the nth drug, βmn is the interaction coefficient between the mth and nth drugs, and βnn is the quadratic coefficient for the nth drug. […] The coefficients were calibrated using the data points in dose response assay of single drugs and drug combination (Table 2). To ensure the robustness and integrity of the assay, Z′ score is calculated after every QPOP analysis.

Molecule	IC15 (Homo sapiens) [nM]	IC30 (Homo sapiens) [nM]	IC15 [2] [nM]	IC30 [3] [nM]	Coefficient estimates of the second-order quadratic fit [1]	other results
O=P1(NCCCl)OCCCN1CCCl (centres unmarked) [Ifosfamide]	15000	30000	–	–	–	Estimate, quadratic coefficient of the second-order quadratic fit [1]: 0.001006
CN(Cc1cnc2nc(N)nc(N)c2n1)c1ccc(C(=O)N[C@@H](CCC(=O)O)C(=O)O)cc1 [Methotrexate]	–	–	300	600	–	–
O=P1(N(CCCl)CCCl)NCCCO1 (centres unmarked) [Cyclophosphamide]	30000	60000	–	–	–	–
Nc1ccn([C@@H]2O[C@H](CO)[C@@H](O)[C@@H]2O)c(=O)n1 [Cytarabine]	233	466	–	–	–	–
COc1cccc2c1C(=O)c1c(O)c3c(c(O)c1C2=O)C[C@@](O)(C(=O)CO)C[C@@H]3O[C@H]1C[C@H](N)[C@H](O)[C@H](C)O1 [Doxorubucin]	–	–	22.5	45	–	–
N.N.[Cl][Pt][Cl] [Cisplatin]	–	–	–	–	−0.06756	IC15 (concentration used in the ex vivo QPOP experiment, read-out: IC15): 1500 nM; IC30 (concentration used in the ex vivo QPOP experiment, read-out: IC30): 3000 nM; Estimate, single-drug coefficient of the second-order quadratic fit [1]: 0.06189
C[C@@H]1C[C@H]2[C@@H]3CCC4=CC(=O)C=C[C@]4(C)[C@@]3(F)[C@@H](O)C[C@]2(C)[C@@]1(O)C(=O)CO [Dexamethasone]	60	120	–	–	–	–
COc1cc([C@@H]2c3cc4c(cc3[C@@H](O[C@@H]3O[C@@H]5CO[C@@H](C)O[C@H]5[C@H](O)[C@H]3O)[C@H]3COC(=O)[C@H]23)OCO4)cc(OC)c1O [Etoposide]	–	–	283	565	−3.739	–
Nc1ccn([C@@H]2O[C@H](CO)[C@@H](O)C2(F)F)c(=O)n1 [Gemcitabine]	–	–	7.79	15.6	–	–
CC(C)C[C@H](NC(=O)[C@H](Cc1ccccc1)NC(=O)c1cnccn1)B(O)O [Bortezomib]	–	–	6	12	5456	–
L-asparaginase	–	–	–	–	2.237	IC15 [4]: 0.3 IU/ml; IC30 [4]: 0.6 IU/ml; Estimate, single-drug coefficient of the second-order quadratic fit [1]: −1.282
